Experimental data from ChEMBL document CHEMBL1201862, “PubChem BioAssay data set” (2004).
The source made the active and inactive calls.

What was measured:
fMet-Leu-Phe receptor = fMet-Leu-Phe receptor (Homo sapiens, UniProt P21462); experiment: FPR ligands, dose response (AID 519); format: functional
[1] = CEM21 cell cytotoxicity, dose response, cytotoxicity control, plate reader, dry powder (AID 687026); format: functional, cell-based
NS3 = NS3 (Hepatitis C virus, UniProt A3EZJ3); experiment: HCV NS3 helicase inhibitor potency, dose response, biochemical, fluorescence polarization, ChemBridge library (AID 743264)
[2] = target: Endoplasmic reticulum aminopeptidase 1 (Homo sapiens, UniProt Q9NZ08); experiment: ERAP1 aminopeptidase inhibitors, dose response, biochemical, cherry-pick, set 2, plate reader (AID 743314)
Paired box protein Pax-8 = Paired box protein Pax-8 (Homo sapiens, UniProt Q06710); experiment: inhibitors of PAX8-driven TPO luciferase reporter, dose response, RMG-I cells, cherry-pick (AID 687027); format: functional, cell-based;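 further: luciferase reporter driven by Pax8 target thyroperoxidase promoter measured by SteadyGlo luminescence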
[3] = IGROV1 ovarian cancer cell cytotoxicity, dose response, PAX8 inhibitor project, plate reader, dry powder samples (AID 743043); format: functional, cell-based; conditions: IGROV-1
[4] = NIH:OVCAR-3 ovarian cancer cell cytotoxicity, dose response, PAX8 inhibitor project, plate reader, dry powder samples (AID 743044); format: functional, cell-based
[5] = cytotoxicity in OVCAR8 ovarian cancer cells, dose response, PAX8 project, cell-based, plate reader, dry powder samples (AID 743197); format: functional; conditions: OVCAR-8
[6] = A2780 ovarian cancer cell cytotoxicity, dose response, cytotoxicity control, plate reader, dry powder samples (AID 743046); format: functional, cell-based
[7] = Late stage counterscreen for inhibitors of Trypanosoma brucei methionyl tRNA synthetase (MetRS): Luminescence-based cell-based high throughput dose response assay to identify compounds that are cytotoxic to Jurkat human T lymphocyte cells.; format: functional
[8] = Counterscreen for inhibitors of Trypanosoma brucei methionyl tRNA synthetase (MetRS): Luminescence-based cell-based high throughput dose response assay to identify compounds that are cytotoxic to Jurkat human T lymphocyte cells.; format: functional
[9] = target: T1, Methionyl-tRNA synthetase, putative (Trypanosoma brucei brucei, UniProt Q38C91); format: functional, Trypanosoma brucei brucei strain 927/4 GUTat10.1
T1 sequence (Q38C91 whole entry): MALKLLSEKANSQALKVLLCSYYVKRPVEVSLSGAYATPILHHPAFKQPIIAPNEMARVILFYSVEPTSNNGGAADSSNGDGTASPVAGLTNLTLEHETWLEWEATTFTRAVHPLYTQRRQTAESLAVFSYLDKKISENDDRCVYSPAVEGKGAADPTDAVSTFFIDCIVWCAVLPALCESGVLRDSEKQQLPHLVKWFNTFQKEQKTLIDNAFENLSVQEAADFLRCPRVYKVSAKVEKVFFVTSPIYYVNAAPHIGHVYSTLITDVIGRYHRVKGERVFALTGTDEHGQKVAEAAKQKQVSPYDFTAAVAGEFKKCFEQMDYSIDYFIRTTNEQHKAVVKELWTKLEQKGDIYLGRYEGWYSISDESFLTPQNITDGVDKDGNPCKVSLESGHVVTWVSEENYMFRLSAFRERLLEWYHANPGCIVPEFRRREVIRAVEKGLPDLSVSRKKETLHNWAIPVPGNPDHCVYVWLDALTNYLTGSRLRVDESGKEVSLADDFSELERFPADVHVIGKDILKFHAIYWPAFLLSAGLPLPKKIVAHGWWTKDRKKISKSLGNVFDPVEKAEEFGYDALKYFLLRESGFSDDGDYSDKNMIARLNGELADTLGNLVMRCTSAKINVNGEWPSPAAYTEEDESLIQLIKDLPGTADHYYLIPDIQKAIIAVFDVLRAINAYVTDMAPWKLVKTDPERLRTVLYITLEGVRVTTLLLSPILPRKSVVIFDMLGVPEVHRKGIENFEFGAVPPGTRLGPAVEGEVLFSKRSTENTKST

[10] = target: T1, Methionyl-tRNA synthetase, putative; format: functional, Trypanosoma brucei brucei strain 927/4 GUTat10.1; remark: listed apart in the source
[11] = ADAM10 protease inhibitors, dose response, selectivity assay for ADAM17 exosite inhibitor project, biochemical, FRET peptide substrate, recombinant human ADAM10 (AID 743259);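 further: ADAM10 enzyme cleaving a FRET peptide substrate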
[12] = target: Induced myeloid leukemia cell differentiation protein Mcl-1 (Homo sapiens, UniProt Q07820); format: functional
[13] = target: Disintegrin and metalloproteinase domain-containing protein 17 (Homo sapiens, UniProt P78536); experiment: exosite inhibitors of ADAM17, dose response, biochemical (AID 743260)
[14] = YAP1 pathway inhibition via CTGF transcript levels, dose response, cell-based, DLD1 colon cancer, RT-qPCR, cherry-pick (AID 1053122); format: functional; conditions: Cancer cell lines
[15] = A375 melanoma cell cytotoxicity, dose response, counter-screen for MITF inhibitor project, CellTiter-Glo luminescence, dry powder, set 2 (AID 624489); format: functional, cell-based; conditions: A-375;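 further: actives are compounds lowering A375 viability meaning general cytotoxicity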
[16] = A375 melanoma cell viability loss, dose response, counter-screen for MITF inhibitor project, CellTiter-Glo luminescence, dry powder, set 4 (AID 624364); format: functional, cell-based; conditions: A-375;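 further: A375 melanoma cells are MITF independent so this is a counter screen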
[17] = LGR2 antagonists, dose response, cell-based, HEK293, CRE-luciferase reporter, cherry pick, set 2 (AID 743343); format: functional;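 further: transfected cells were stimulated with diluted bursicon conditioned medium after compound addition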
[18] = A549 cell cytotoxicity, dose response, cytotoxicity control, plate reader, cherry-pick, antagonist series (AID 743412); format: functional, cell-based
[19] = P. falciparum 3D7-ScDHODH growth inhibitors, dose response, SYBR Green, dry powder samples (AID 1159570); format: functional, cell-based;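 further: parasite growth measured after 72 hours of compound exposure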
[20] = HepG2 cell cytotoxicity, dose response, cytotoxicity control, plate reader, dry powder samples (AID 1159569); format: functional, cell-based;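 further: inhibitor potency with signal falling toward the positive control level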
[21] = HEK293 cell cytotoxicity, dose response, cytotoxicity control, plate reader, cherry-picked samples (AID 743446); format: functional, cell-based
[22] = MC4R antagonists, dose response, counter-screen for LGR2 antagonist project, cell-based, plate reader, cherry pick (AID 743444); format: functional;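 further: transfected HEK 293 cells stimulated with alpha-MSH peptide; potency of inhibitors of the alpha-MSH evoked signal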
[23] = IOSE-T80 ovarian epithelial cell cytotoxicity, dose response, cytotoxicity control for PAX8 inhibitor project, plate reader, dry powder samples (AID 743045); format: functional, cell-based
[24] = P. falciparum ATP4 D1247Y mutant growth inhibitors, dose response, NITD609-resistant line, SYBR Green, dry powder (AID 1159571); format: functional, cell-based;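 further: parasites synchronized at ring stage by sorbitol before testing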
[25] = HepG2 cell cytotoxicity, dose response, cytotoxicity control, plate reader, cherry-pick, antagonist series (AID 743416); format: functional, cell-based
[26] = P. falciparum Dd2 growth inhibitors, dose response, SYBR Green, cherry-picked samples (AID 1159567); format: functional, cell-based
[27] = P. falciparum Dd2 growth inhibitors, dose response, SYBR Green, dry powder samples (AID 1159566); format: functional, cell-based;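 further: potency for growth inhibition with lower SYBR green DNA signal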

Sequence of Paired box protein Pax-8 (Q06710 whole entry): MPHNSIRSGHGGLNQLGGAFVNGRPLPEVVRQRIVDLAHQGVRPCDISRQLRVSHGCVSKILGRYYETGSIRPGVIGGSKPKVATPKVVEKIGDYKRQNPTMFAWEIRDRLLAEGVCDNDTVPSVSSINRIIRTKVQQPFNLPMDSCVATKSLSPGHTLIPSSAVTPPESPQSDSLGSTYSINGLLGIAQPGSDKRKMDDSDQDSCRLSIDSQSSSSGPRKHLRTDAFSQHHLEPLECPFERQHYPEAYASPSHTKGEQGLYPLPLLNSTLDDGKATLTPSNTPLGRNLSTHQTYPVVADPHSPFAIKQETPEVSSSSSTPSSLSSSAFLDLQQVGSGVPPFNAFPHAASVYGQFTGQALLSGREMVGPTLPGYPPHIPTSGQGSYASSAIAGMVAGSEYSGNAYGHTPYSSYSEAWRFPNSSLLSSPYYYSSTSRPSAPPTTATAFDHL
Sequence of Disintegrin and metalloproteinase domain-containing protein 17 (P78536 whole entry, the tested form may be a part): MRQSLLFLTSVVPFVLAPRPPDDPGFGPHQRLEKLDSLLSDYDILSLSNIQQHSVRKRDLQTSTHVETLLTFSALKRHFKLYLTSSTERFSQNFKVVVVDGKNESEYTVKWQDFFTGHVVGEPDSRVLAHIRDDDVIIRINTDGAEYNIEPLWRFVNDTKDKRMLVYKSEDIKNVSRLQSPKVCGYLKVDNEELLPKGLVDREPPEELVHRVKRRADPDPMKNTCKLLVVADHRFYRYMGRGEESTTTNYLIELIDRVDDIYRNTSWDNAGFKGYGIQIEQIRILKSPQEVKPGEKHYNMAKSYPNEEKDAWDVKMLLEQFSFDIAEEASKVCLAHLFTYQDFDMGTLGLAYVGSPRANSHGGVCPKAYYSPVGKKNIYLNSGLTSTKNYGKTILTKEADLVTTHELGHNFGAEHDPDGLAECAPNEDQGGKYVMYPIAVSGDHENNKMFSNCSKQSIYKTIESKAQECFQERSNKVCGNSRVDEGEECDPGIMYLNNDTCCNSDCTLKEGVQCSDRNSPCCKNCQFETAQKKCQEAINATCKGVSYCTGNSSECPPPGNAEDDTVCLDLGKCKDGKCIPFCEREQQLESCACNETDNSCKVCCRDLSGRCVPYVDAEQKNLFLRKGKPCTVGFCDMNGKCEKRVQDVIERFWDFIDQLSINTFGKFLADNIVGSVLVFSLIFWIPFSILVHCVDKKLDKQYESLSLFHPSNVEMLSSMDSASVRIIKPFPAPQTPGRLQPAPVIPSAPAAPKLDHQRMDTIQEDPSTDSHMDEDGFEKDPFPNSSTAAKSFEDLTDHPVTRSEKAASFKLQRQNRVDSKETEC
Sequence of fMet-Leu-Phe receptor (P21462 whole entry): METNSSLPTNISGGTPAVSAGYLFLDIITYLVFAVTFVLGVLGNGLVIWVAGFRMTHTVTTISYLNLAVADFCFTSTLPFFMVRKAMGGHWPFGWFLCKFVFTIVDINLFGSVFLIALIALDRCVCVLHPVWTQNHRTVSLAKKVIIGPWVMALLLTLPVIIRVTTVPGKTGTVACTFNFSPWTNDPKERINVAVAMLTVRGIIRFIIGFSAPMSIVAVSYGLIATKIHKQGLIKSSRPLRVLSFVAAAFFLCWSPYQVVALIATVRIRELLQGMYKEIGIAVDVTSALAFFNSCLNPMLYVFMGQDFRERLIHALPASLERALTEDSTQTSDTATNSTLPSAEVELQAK
Sequence of Induced myeloid leukemia cell differentiation protein Mcl-1 (Q07820 whole entry, the tested form may be a part): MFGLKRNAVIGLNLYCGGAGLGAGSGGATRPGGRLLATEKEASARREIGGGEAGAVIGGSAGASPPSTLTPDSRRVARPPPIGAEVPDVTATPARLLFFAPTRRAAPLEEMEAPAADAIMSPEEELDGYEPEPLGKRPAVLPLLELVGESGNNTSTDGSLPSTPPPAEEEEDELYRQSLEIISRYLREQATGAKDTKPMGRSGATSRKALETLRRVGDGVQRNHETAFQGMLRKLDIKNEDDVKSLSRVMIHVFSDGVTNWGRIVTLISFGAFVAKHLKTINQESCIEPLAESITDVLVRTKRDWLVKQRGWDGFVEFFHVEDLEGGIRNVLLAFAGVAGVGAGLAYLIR
Sequence of NS3 (A3EZJ3 whole entry): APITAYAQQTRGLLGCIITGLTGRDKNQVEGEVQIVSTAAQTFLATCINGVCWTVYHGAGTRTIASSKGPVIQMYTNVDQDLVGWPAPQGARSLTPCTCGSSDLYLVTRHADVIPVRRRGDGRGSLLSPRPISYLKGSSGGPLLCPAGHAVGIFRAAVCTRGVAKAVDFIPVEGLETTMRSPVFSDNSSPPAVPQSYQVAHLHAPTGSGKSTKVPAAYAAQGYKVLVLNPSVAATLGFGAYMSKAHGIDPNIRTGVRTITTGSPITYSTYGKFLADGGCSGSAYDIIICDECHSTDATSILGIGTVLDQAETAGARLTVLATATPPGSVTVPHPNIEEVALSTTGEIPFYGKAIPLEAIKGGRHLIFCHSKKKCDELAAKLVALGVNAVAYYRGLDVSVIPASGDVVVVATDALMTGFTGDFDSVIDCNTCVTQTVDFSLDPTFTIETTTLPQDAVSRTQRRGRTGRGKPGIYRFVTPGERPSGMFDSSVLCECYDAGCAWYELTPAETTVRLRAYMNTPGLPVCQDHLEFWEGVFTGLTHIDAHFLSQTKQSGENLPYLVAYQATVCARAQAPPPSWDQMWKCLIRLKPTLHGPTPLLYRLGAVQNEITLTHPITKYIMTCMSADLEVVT
Sequence of Endoplasmic reticulum aminopeptidase 1 (Q9NZ08 whole entry): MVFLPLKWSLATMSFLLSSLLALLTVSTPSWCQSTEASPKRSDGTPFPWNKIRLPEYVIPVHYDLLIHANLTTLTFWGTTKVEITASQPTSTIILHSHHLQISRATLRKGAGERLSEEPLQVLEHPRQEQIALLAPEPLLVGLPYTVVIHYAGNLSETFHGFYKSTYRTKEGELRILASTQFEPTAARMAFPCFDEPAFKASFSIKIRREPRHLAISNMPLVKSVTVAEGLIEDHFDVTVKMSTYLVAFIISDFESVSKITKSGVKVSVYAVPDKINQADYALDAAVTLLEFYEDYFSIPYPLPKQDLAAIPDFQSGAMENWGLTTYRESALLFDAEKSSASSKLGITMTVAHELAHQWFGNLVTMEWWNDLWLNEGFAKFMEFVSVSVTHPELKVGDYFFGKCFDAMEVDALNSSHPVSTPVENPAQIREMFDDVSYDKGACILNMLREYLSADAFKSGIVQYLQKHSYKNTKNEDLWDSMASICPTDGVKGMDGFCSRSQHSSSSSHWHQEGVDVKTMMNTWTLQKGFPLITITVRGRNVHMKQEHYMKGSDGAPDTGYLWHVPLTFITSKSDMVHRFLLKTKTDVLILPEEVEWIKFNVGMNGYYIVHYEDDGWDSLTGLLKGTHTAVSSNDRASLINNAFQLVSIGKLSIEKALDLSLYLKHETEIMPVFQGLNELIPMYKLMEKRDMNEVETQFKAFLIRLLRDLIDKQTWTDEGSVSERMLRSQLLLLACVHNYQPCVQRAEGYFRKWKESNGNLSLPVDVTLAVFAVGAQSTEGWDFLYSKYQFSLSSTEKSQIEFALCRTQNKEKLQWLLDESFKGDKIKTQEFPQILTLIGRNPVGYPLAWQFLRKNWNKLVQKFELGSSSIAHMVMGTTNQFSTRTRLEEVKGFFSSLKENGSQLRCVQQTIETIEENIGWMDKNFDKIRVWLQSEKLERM

CCCc1nc2ccccc2c2nc(N)nn12
Ki (fMet-Leu-Phe receptor): > 66.7 µM (inactive)

Cc1ccc(C)n1-c1ccc(C(=O)O)c(O)c1
AC50 [1]: > 70 µM (inactive) | IC50 (NS3): 1.85 µM (inactive)

O=c1ccc2cc(O[C@@H]3O[C@@H](CO)[C@H](O)[C@@H](O)[C@@H]3O)c(O)cc2o1
AC50 [2]: 2.37 µM (active)

COc1ccc(S(=O)(=O)Nc2ccc3c(c2)C(=O)N([C@H](C)CO)C[C@@H](C)[C@@H](CN(C)Cc2ccc(C(F)(F)F)cc2)OCCCC[C@@H](C)O3)cc1
AC50 (Paired box protein Pax-8): 7.09 µM (active) | AC50 [3]: 65.2 µM (active) | AC50 [4]: 27.9 µM (active) | AC50 [5]: 30.6 µM (active) | AC50 [6]: 51.2 µM (active)

Cc1ccc(NC(=O)CN(C)C(=O)CCSc2ccc(F)cc2)cc1
IC50 [7]: > 83.3 µM (inactive) | IC50 [8]: 83.3 µM (inactive) | IC50 [9]: 3.09 µM (active) | IC50 [10]: 4.57 µM (active)

CN(C)c1ccc(NC(=O)c2ccc(COc3cccc(Cl)c3)o2)cc1
IC50 [11]: 8.25 µM (active) | IC50 [12]: 23.4 µM (active) | IC50 [13]: > 69.5 µM (inactive)

C[C@@H]1C/C=C/C[C@@H](c2cccc(Cl)c2)NC(=O)[C@H](Cc2ccccc2)N(C)C(=O)c2ccccc2O1.C[C@@H]1C/C=C\C[C@@H](c2cccc(Cl)c2)NC(=O)[C@H](Cc2ccccc2)N(C)C(=O)c2ccccc2O1
AC50 [14]: 0.492 µM (active)

C=CCNC1=C(N2CCOCC2)C(=O)c2ccccc2C1=O
AC50 [15]: 9.04 µM (active) | AC50 [16]: 34.1 µM (active)

O=C(C1CC1)N1C[C@@H]2N[C@H](C1)[C@@H]2c1ccc(-c2cccc(F)c2)cc1
AC50 [17]: 12.5 µM (active) | AC50 [18]: 3.9 µM (active) | AC50 [19]: 0.9 µM (active) | AC50 (Paired box protein Pax-8): 6.38 µM (active) | AC50 [20]: 23.2 µM (active) | AC50 [3]: 26.7 µM (active) | AC50 [21]: 28.1 µM (active) | AC50 [22]: 6.56 µM (active) | AC50 [23]: 21.1 µM (active) | AC50 [24]: 1.04 µM (active) | AC50 [25]: 19.6 µM (active) | AC50 [4]: 27 µM (active) | AC50 [5]: 21.2 µM (active) | AC50 [26]: 2.2 µM (active) | AC50 [27]: 0.778 µM (active)
